Source: PubChem BioAssay (NCI)
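A five-concentration, 48-hour dose response in 96-well plates underlies each endpoint, interpolated linearly between surrounding concentrations. Abbreviation: GI50, concentration required for 50% inhibition of growth. TGI: concentration producing complete growth inhibition.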

Columns and labels:
Assay in all cases: growth of human tumour cells (NCI), 48 h; in the data active means GI50 below about 0.43 µM; inactive means the rest
[1] = system: SK-MEL-5 melanoma
[2] = system: UACC-62 melanoma
[3] = system: NCI-H460 lung
[4] = system: OVCAR-3 ovarian
[5] = system: A549 NSCLC
[6] = system: SN12C renal
[7] = system: MCF7 breast
[8] = system: NCI-H226 lung
[9] = system: MDA-MB-435
[10] = system: HOP-62 NSCLC
[11] = system: PC-3 prostate
[12] = system: SF-268 CNS
[13] = system: LOX IMVI melanoma
[14] = system: TK-10 renal
[15] = system: SR leukemia
[16] = system: A498 renal
[17] = system: NCI/ADR-RES ovarian
[18] = system: SK-MEL-28 melanoma
[19] = system: SF-295 CNS
[20] = system: CAKI-1 renal
[21] = system: EKVX NSCLC
[22] = system: SK-OV-3 ovarian
[23] = system: CCRF-CEM leukemia
[24] = system: UO-31 renal
[25] = system: ACHN renal
[26] = system: M14 melanoma
[27] = system: UACC-257 melanoma
[28] = system: HL-60(TB) leukemia
[29] = system: OVCAR-4 ovarian
[30] = system: HT29 colon
[31] = system: HCT-15 colon
[32] = system: SNB-75 CNS
[33] = system: RXF 393 renal
[34] = system: HCT-116 colon
[35] = system: OVCAR-5 ovarian
[36] = system: BT-549 breast
[37] = system: NCI-H522 lung
[38] = system: RPMI-8226 leukemia
[39] = system: U251 CNS
[40] = system: SW-620 colon
[41] = system: T-47D breast
[42] = system: COLO 205 colon
[43] = system: KM12 colon
[44] = system: DU-145 prostate
[45] = system: MDA-MB-231 breast
[46] = system: NCI-H23 lung
[47] = system: HOP-92 NSCLC
[48] = system: HCC-2998 colon
[49] = system: SNB-19 CNS
[50] = system: MOLT-4 leukemia
[51] = system: IGROV1 ovarian
[52] = system: OVCAR-8 ovarian
[53] = system: SK-MEL-2 melanoma
[54] = system: MALME-3M melanoma
[55] = system: K-562 leukemia
[56] = system: 786-0 renal
[57] = system: SF-539 CNS
[58] = system: HS 578T breast

O=[N+]([O-])c1cc(C(F)(F)F)ccc1Sc1ccc(C(F)(F)F)cc1[N+](=O)[O-]
54.9 µM: TGI [4]
> 100 µM: TGI [1] | TGI [2] | TGI [3] | TGI [5] | TGI [6] | TGI [7] | TGI [8] | TGI [9] | TGI [10] | TGI [11] | TGI [12] | TGI [13] | TGI [14] | TGI [15] | TGI [17] | TGI [18] | TGI [19] | TGI [20] | TGI [21] | TGI [22] | TGI [23] | TGI [24] | TGI [25] | TGI [26] | TGI [27] | TGI [28] | TGI [29] | TGI [31] | TGI [32] | TGI [33] | TGI [34] | TGI [35] | TGI [36] | TGI [38] | TGI [39] | TGI [40] | TGI [41] | TGI [42] | TGI [43] | TGI [44] | TGI [45] | TGI [46] | TGI [47] | TGI [48] | TGI [49] | TGI [50] | TGI [51] | TGI [52] | TGI [54] | TGI [55] | TGI [56] | TGI [57] | TGI [58]
30.6 µM: TGI [16]
9.96 µM: TGI [53]
inactive: GI50 [1] 16.7 µM | GI50 [2] 5.27 µM | GI50 [3] 19 µM | GI50 [4] 5.11 µM | GI50 [5] 24.9 µM | GI50 [6] 7.7 µM | GI50 [7] 9.39 µM | GI50 [8] > 100 µM | GI50 [9] 3.04 µM | GI50 [10] > 100 µM | GI50 [11] 61.2 µM | GI50 [12] 7.07 µM | GI50 [13] 3.37 µM | GI50 [14] 28.3 µM | GI50 [15] 3.65 µM | GI50 [16] 7.22 µM | GI50 [17] 8.19 µM | GI50 [18] 13.2 µM | GI50 [19] 31.4 µM | GI50 [20] 5.67 µM | GI50 [21] 41.7 µM | GI50 [22] 7.65 µM | GI50 [23] 3.47 µM | GI50 [24] 34.8 µM | GI50 [25] 49.4 µM | GI50 [26] 7.23 µM | GI50 [27] 6.65 µM | GI50 [28] 3.32 µM | GI50 [29] 4.05 µM | GI50 [30] 3.28 µM | GI50 [31] 6.84 µM | GI50 [32] > 100 µM | GI50 [33] 11.4 µM | GI50 [34] 3.68 µM | GI50 [35] 43 µM | GI50 [36] 7.52 µM | GI50 [37] 7.14 µM | GI50 [38] 6.69 µM | GI50 [39] 12.9 µM | GI50 [40] 3.31 µM | GI50 [41] 29.2 µM | GI50 [42] 41.8 µM | GI50 [43] 5.24 µM | GI50 [44] 10.6 µM | GI50 [45] 5.1 µM | GI50 [46] 4.62 µM | GI50 [47] 7.96 µM | GI50 [48] 19.7 µM | GI50 [49] 70.2 µM | GI50 [50] 3.92 µM | GI50 [51] 17.1 µM | GI50 [52] 6.1 µM | GI50 [53] 3.32 µM | GI50 [54] 17.5 µM | GI50 [55] 3.49 µM | GI50 [56] > 100 µM | GI50 [57] 9.15 µM | GI50 [58] 18.6 µM
9.79 µM: TGI [30]
82.4 µM: TGI [37]

CC1=C(C(=O)Nc2cc(Cl)c3[nH]ncc3c2)C(c2ccc(C(F)(F)F)cc2)CC(=O)N1 (configuration not stated)
> 25 µM: TGI [1] | TGI [2] | TGI [3] | TGI [4] | TGI [5] | TGI [6] | TGI [7] | TGI [8] | TGI [9] | TGI [10] | TGI [11] | TGI [12] | TGI [13] | TGI [14] | TGI [15] | TGI [16] | TGI [17] | TGI [18] | TGI [19] | TGI [20] | TGI [21] | TGI [22] | TGI [23] | TGI [24] | TGI [25] | TGI [26] | TGI [27] | TGI [28] | TGI [29] | TGI [30] | TGI [31] | TGI [32] | TGI [33] | TGI [34] | TGI [35] | TGI [36] | TGI [37] | TGI [38] | TGI [39] | TGI [40] | TGI [41] | TGI [42] | TGI [43] | TGI [44] | TGI [45] | TGI [46] | TGI [47] | TGI [48] | TGI [49] | TGI [50] | TGI [51] | TGI [52] | TGI [53] | TGI [54] | TGI [55] | TGI [56] | TGI [57] | TGI [58]
active: GI50 [47] 0.145 µM
inactive: GI50 [1] 11.4 µM | GI50 [2] 19 µM | GI50 [3] > 25 µM | GI50 [4] > 25 µM | GI50 [5] > 25 µM | GI50 [6] > 25 µM | GI50 [7] > 16.1 µM | GI50 [8] 2.11 µM | GI50 [9] > 23.3 µM | GI50 [10] 5.07 µM | GI50 [11] > 25 µM | GI50 [12] 11.7 µM | GI50 [13] > 20.4 µM | GI50 [14] > 17.6 µM | GI50 [15] > 7.84 µM | GI50 [16] 11.7 µM | GI50 [17] > 25 µM | GI50 [18] > 25 µM | GI50 [19] 8.6 µM | GI50 [20] > 25 µM | GI50 [21] > 25 µM | GI50 [22] > 25 µM | GI50 [23] 13.8 µM | GI50 [24] 2 µM | GI50 [25] > 25 µM | GI50 [26] > 25 µM | GI50 [27] > 25 µM | GI50 [28] > 21.2 µM | GI50 [29] > 25 µM | GI50 [30] > 25 µM | GI50 [31] > 25 µM | GI50 [32] 3.13 µM | GI50 [33] 2.37 µM | GI50 [34] > 22.4 µM | GI50 [35] > 25 µM | GI50 [36] 5.07 µM | GI50 [37] > 18.7 µM | GI50 [38] 24.9 µM | GI50 [39] > 25 µM | GI50 [40] > 25 µM | GI50 [41] > 12.8 µM | GI50 [42] 14.8 µM | GI50 [43] 20 µM | GI50 [44] > 25 µM | GI50 [45] 13.7 µM | GI50 [46] > 25 µM | GI50 [48] > 25 µM | GI50 [49] > 25 µM | GI50 [50] 11.8 µM | GI50 [51] > 25 µM | GI50 [52] > 25 µM | GI50 [53] > 25 µM | GI50 [54] 13.1 µM | GI50 [55] > 25 µM | GI50 [56] 11.7 µM | GI50 [57] 14.8 µM | GI50 [58] 0.898 µM
